According to the supplement of paper PMC11061612:

Assays:
Experiment in all cases: Bliss excess, mean over the matrix (fraction); higher = more synergy
IGR-37 (Melanoma) = test system: IGR-37 (Melanoma)
Procedure, shortened: (§1)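 Bliss excess equals the observed combination effect minus the expected value EA + EB − EA·EB, where EA and EB are the effects of each agent alone. Combination Emax is the second-highest inhibition within the matrix. Inhibition was scaled from CellTiter-Glo 2.0 luminescence, with 0 set by vehicle wells and 1 by blank wells, after 72 hours of two-drug dosing of cells plated in 1536-well plates.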

NCI-H2591 (Mesothelioma) = test system: NCI-H2591 (Mesothelioma)
Procedure, shortened: as §1

[1] = test system: SK-MES-1 (Squamous Cell Lung Carcinoma)
Procedure, shortened: as §1

[2] = test system: CAL-29 (Bladder Carcinoma)
Procedure, shortened: as §1

[3] = test system: ONS-76 (Other Solid Carcinomas)
Procedure, shortened: as §1

A498 (Kidney Carcinoma) = test system: A498 (Kidney Carcinoma)
Procedure, shortened: as §1

[4] = test system: OS-RC-2 (Kidney Carcinoma)
Procedure, shortened: as §1

[5] = test system: JSC-1 (B-Cell Non-Hodgkin's Lymphoma)
Procedure, shortened: as §1

[6] = test system: SK-MG-1 (Low Grade Glioma)
Procedure, shortened: as §1

[7] = test system: NCI-H1650 (Lung Adenocarcinoma)
Procedure, shortened: as §1

[8] = test system: BICR22 (Oral Cavity Carcinoma)
Procedure, shortened: as §1

U-2-OS (Osteosarcoma) = test system: U-2-OS (Osteosarcoma)
Procedure, shortened: as §1

[9] = test system: NCI-H2141 (Small Cell Lung Carcinoma)
Procedure, shortened: as §1

[10] = test system: SISO (Cervical Carcinoma)
Procedure, shortened: as §1

FU97 (Gastric Carcinoma) = test system: FU97 (Gastric Carcinoma)
Procedure, shortened: as §1

[11] = test system: HCC1954 (Breast Carcinoma)
Procedure, shortened: as §1

ARH-77 (Non-Cancerous) = test system: ARH-77 (Non-Cancerous)
Procedure, shortened: as §1

8-MG-BA (Glioblastoma) = test system: 8-MG-BA (Glioblastoma)
Procedure, shortened: as §1

[12] = test system: KARPAS-422 (B-Cell Non-Hodgkin's Lymphoma)
Procedure, shortened: as §1

LN-405 (Glioblastoma) = test system: LN-405 (Glioblastoma)
Procedure, shortened: as §1

Row | Structure (SMILES) | Bliss excess (IGR-37 (Melanoma)) | Bliss excess (NCI-H2591 (Mesothelioma)) | Bliss excess [1] | Bliss excess [2] | Bliss excess [3] | Bliss excess (A498 (Kidney Carcinoma)) | Bliss excess [4] | Bliss excess [5] | Bliss excess [6] | Bliss excess [7] | Bliss excess [8] | Bliss excess (U-2-OS (Osteosarcoma)) | Bliss excess [9] | Bliss excess [10] | Bliss excess (FU97 (Gastric Carcinoma)) | Bliss excess [11] | Bliss excess (ARH-77 (Non-Cancerous)) | Bliss excess (8-MG-BA (Glioblastoma)) | Bliss excess [12] | Bliss excess (LN-405 (Glioblastoma))
1 | CS(=O)(=O)CCNCc1ccc(-c2ccc3ncnc(Nc4ccc(OCc5cccc(F)c5)c(Cl)c4)c3c2)o1 [Lapatinib] + C[C@@H](Oc1cc(-c2cnn(C3CCNCC3)c2)cnc1N)c1c(Cl)ccc(F)c1Cl [Crizotinib] (first compound max 10 µM, 7x7, partner max 10 µM) | -0.0432 | -0.0493 | -0.0288 | 0.0215 | -0.0667 | -0.0592 | -0.0186 | -0.0008 | -0.0513 | 0.0253 | -0.0388 | -0.0263 | -0.0758 | -0.0214 | -0.0144 | 0.0048 | -0.0445 | -0.0365 | -0.0649 | -0.0158
2 | CC(=O)c1c(C)c2cnc(Nc3ccc(N4CCNCC4)cn3)nc2n(C2CCCC2)c1=O [Palbociclib] + CC1(C)CCC(CN2CCN(c3ccc(C(=O)NS(=O)(=O)c4ccc(NCC5CCOCC5)c([N+](=O)[O-])c4)c(Oc4cnc5[nH]ccc5c4)c3)CC2)=C(c2ccc(Cl)cc2)C1 [Venetoclax] (first compound max 10 µM, 7x7, partner max 1 µM) | -0.0528 | 0.0045 | -0.0114 | -0.0523 | -0.0115 | -0.021 | -0.0385 | -0.0127 | -0.0134 | -0.051 | -0.0319 | -0.0275 | -0.0298 | -0.0384 | -0.0281 | -0.0424 | 0.0762 | 0.0049 | 0.0434 | -0.0391
3 | CC(=O)c1c(C)c2cnc(Nc3ccc(N4CCNCC4)cn3)nc2n(C2CCCC2)c1=O [Palbociclib] + Cc1c2c(nn1C)CSCc1cc(n(C)n1)CSc1cc(c3ccccc3c1)OCCCc1c(C(=O)O)n(C)c3c-2c(Cl)ccc13 [AZD5991] (first compound max 10 µM, 7x7, partner max 1 µM) | -0.0335 | -0.0328 | -0.0463 | -0.0532 | -0.0372 | -0.0779 | -0.0419 | -0.0567 | -0.0698 | -0.0409 | -0.0568 | -0.0224 | -0.0791 | -0.0282 | 0.0142 | -0.09 | -0.0248 | -0.0424 | -0.0221 | -0.0445
4 | CC(=O)c1c(C)c2cnc(Nc3ccc(N4CCNCC4)cn3)nc2n(C2CCCC2)c1=O [Palbociclib] + Cn1cnc2c(F)c(Nc3ccc(Br)cc3Cl)c(C(=O)NOCCO)cc21 [Selumetinib] (first compound max 10 µM, 7x7, partner max 10 µM) | 0.0324 | -0.0161 | -0.0088 | 0.0021 | 0.0132 | -0.0228 | -0.0712 | 0.0842 | 0.0489 | -0.0775 | 0.102 | -0.0134 | -0.0432 | -0.0488 | 0.0707 | -0.0152 | -0.0147 | -0.0061 | 0.062 | -0.0566
5 | COc1cccc(OCCCN)c1-c1cc(Nc2cnc(C#N)cn2)n[nH]1 [Prexasertib] + C=CCn1c(=O)c2cnc(Nc3ccc(N4CCN(C)CC4)cc3)nc2n1-c1cccc(C(C)(C)O)n1 [AZD1775] (first compound max 1 µM, partner max 1 µM) | 0.0322 | 0.0951 | -0.0425 | -0.0079 | -0.0299 | -0.0716 | -0.0531 | 0.0682 | 0.0712 | 0.0005 | 0.0175 | 0.0506 | -0.0348 | 0.0814 | 0.0052 | 0.114 | 0.0493 | 0.0358 | 0.0841 | 0.0469
6 | COc1cccc(OCCCN)c1-c1cc(Nc2cnc(C#N)cn2)n[nH]1 [Prexasertib] + CCc1c2c(nc3ccc(O)cc13)-c1cc3c(c(=O)n1C2)COC(=O)[C@]3(O)CC [SN-38] (first compound max 1 µM, 7x7, partner max 0.3 µM) | -0.0727 | -0.0353 | -0.0507 | 0.002 | -0.0961 | -0.105 | -0.0392 | -0.0739 | 0.0719 | -0.0339 | -0.0684 | -0.0551 | 0.0455 | 0.0277 | -0.032 | 0.123 | -0.0304 | -0.0166 | 0.0037 | 0.0786
7 | COc1cccc(OCCCN)c1-c1cc(Nc2cnc(C#N)cn2)n[nH]1 [Prexasertib] + CN(C)CCCOc1ccc(-c2ccc3ncc4c(c3c2)n(C2CCOCC2)c(=O)n4C)cn1 [AZD0156] (first compound max 1 µM, 7x7, partner max 1 µM) | 0.0026 | -0.0141 | -0.0471 | -0.0479 | -0.0148 | 0.034 | -0.0393 | -0.0111 | -0.0321 | -0.0451 | -0.0429 | 0.0176 | 0.009 | -0.0056 | -0.0321 | -0.0298 | 0.0018 | -0.0349 | 0.0128 | 0.0013
8 | COc1cccc(OCCCN)c1-c1cc(Nc2cnc(C#N)cn2)n[nH]1 [Prexasertib] + C[C@@H]1COCCN1C2=NC(=NC(=C2)C3(CC3)[S@](=N)(=O)C)C4=C5C=CNC5=NC=C4 [AZD6738] (first compound max 1 µM, 7x7, partner max 10 µM) | -0.0621 | 0.0187 | -0.0205 | -0.0331 | -0.0803 | -0.0514 | 0.0743 | -0.0089 | -0.0012 | 0.0094 | -0.0153 | -0.0426 | -0.047 | 0.0309 | -0.0427 | 0.0079 | 0.0006 | -0.0239 | -0.0734 | -0.136
9 | COc1cccc(OCCCN)c1-c1cc(Nc2cnc(C#N)cn2)n[nH]1 [Prexasertib] + Cc1cc2ncnn2cc1Nc1ncc2c(n1)n(C1CCOCC1)c(=O)n2C [AZD7648] (first compound max 1 µM, 7x7, partner max 10 µM) | -0.058 | -0.0079 | -0.0411 | -0.0754 | -0.031 | -0.0206 | -0.0226 | -0.0189 | -0.0257 | 0.0011 | 0.0594 | -0.0223 | -0.0315 | 0.0136 | -0.0265 | -0.0179 | -0.0015 | -0.058 | -0.0787 | -0.017
10 | COc1cccc(OCCCN)c1-c1cc(Nc2cnc(C#N)cn2)n[nH]1 [Prexasertib] + O=C(c1cc(Cc2n[nH]c(=O)c3ccccc23)ccc1F)N1CCN(C(=O)C2CC2)CC1 [Olaparib] (first compound max 1 µM, 7x7, partner max 10 µM) | -0.0327 | -0.0683 | -0.0174 | -0.185 | -0.123 | -0.0622 | -0.0181 | -0.0179 | 0.0026 | -0.0152 | -0.0685 | -0.0478 | -0.0509 | 0.0003 | -0.0288 | -0.0566 | -0.0485 | 0.0262 | -0.044 | 0.0837
11 | COc1cc2c(cc1OCCCCCOc1cc3c(cc1OC)C(=O)N1C=C(C)C[C@H]1C=N3)N=C[C@@H]1CC(C)=CN1C2=O [SG3199] + O=C(c1cc(Cc2n[nH]c(=O)c3ccccc23)ccc1F)N1CCN(C(=O)C2CC2)CC1 [Olaparib] (first compound max 0.001 µM, 7x7, partner max 10 µM) | -0.0238 | -0.0414 | -0.0267 | -0.0154 | -0.0635 | -0.0336 | -0.0484 | -0.0344 | -0.0009 | -0.0575 | -0.0473 | -0.0203 | -0.0682 | -0.0198 | -0.0513 | -0.0356 | -0.0466 | 0.011 | -0.0044 | 0.0323
12 | CCc1c2c(nc3ccc(O)cc13)-c1cc3c(c(=O)n1C2)COC(=O)[C@]3(O)CC [SN-38] + CN(C)CCCOc1ccc(-c2ccc3ncc4c(c3c2)n(C2CCOCC2)c(=O)n4C)cn1 [AZD0156] (first compound max 0.3 µM, 7x7, partner max 1 µM) | -0.0327 | -0.0118 | -0.0272 | -0.028 | 0.0091 | -0.0444 | -0.0022 | -0.0046 | 0.23 | -0.0079 | 0.0243 | -0.0193 | 0.0219 | 0.0978 | -0.0484 | 0.035 | 0.0037 | 0.0392 | -0.0862 | -0.0028
13 | C[C@@H](c1ccc2nccn2c1)n1nnc2ncc(-c3cnn(C)c3)nc21 [Savolitinib] + CC1(C)CCC(CN2CCN(c3ccc(C(=O)NS(=O)(=O)c4ccc(NCC5CCOCC5)c([N+](=O)[O-])c4)c(Oc4cnc5[nH]ccc5c4)c3)CC2)=C(c2ccc(Cl)cc2)C1 [Venetoclax] (first compound max 1 µM, 7x7, partner max 1 µM) | -0.0519 | -0.0802 | -0.0505 | -0.0655 | -0.0468 | -0.0973 | -0.0854 | -0.0638 | -0.0549 | -0.0716 | -0.0353 | -0.0397 | -0.108 | -0.0438 | -0.0344 | -0.0189 | -0.0092 | -0.025 | -0.0282 | -0.0464
14 | C[C@@H](c1ccc2nccn2c1)n1nnc2ncc(-c3cnn(C)c3)nc21 [Savolitinib] + Cc1c2c(nn1C)CSCc1cc(n(C)n1)CSc1cc(c3ccccc3c1)OCCCc1c(C(=O)O)n(C)c3c-2c(Cl)ccc13 [AZD5991] (first compound max 1 µM, 7x7, partner max 1 µM) | 0.0454 | -0.0549 | -0.0361 | -0.0474 | -0.0219 | -0.032 | -0.0561 | -0.0434 | -0.0648 | -0.0634 | -0.0321 | -0.0271 | -0.0107 | -0.0596 | -0.0118 | -0.0525 | -0.0181 | -0.0303 | -0.0462 | 0.0023
15 | Cn1cnc2c(F)c(Nc3ccc(Br)cc3Cl)c(C(=O)NOCCO)cc21 [Selumetinib] + C=CCn1c(=O)c2cnc(Nc3ccc(N4CCN(C)CC4)cc3)nc2n1-c1cccc(C(C)(C)O)n1 [AZD1775] (first compound max 10 µM, partner max 1 µM) | 0.0122 | -0.0318 | -0.0469 | 0.0074 | -0.0452 | -0.0218 | -0.023 | -0.0432 | -0.106 | -0.0792 | -0.0362 | -0.0328 | -0.0682 | -0.0457 | 0.0052 | -0.0005 | -0.0518 | -0.0543 | -0.0508 | -0.0962
